Experimental data as given in the NIST ThermoML archive (doi:10.1021/je050010l).

Legend:
[1] = refractive index (Na D-line) (dimensionless); xn = mol fraction of the nth substance listed; conditions: 100.8 kPa, Liquid, Standard Abbe refractometry
[2] = xn = mol fraction of the nth substance listed; conditions: 288.15 K, 100.8 kPa, Liquid; for viscosity: Capillary tube (Ostwald / Ubbelohde) method

CC(C)CC(C)(C)C [2,2,4-trimethylpentane] + CC(C)=O
refractive index, [1]
Conditions | 288.15 K | 298.15 K | 308.15 K
x2 = 0 | 1.39404 | 1.389 | 1.38395
x2 = 0.0499 | 1.39283 | 1.38765 | 1.38256
x2 = 0.1 | 1.39158 | 1.38634 | 1.38119
x2 = 0.15 | 1.39031 | 1.38501 | 1.37981
x2 = 0.2 | 1.38905 | 1.38374 | 1.37848
x2 = 0.25 | 1.38769 | 1.3824 | 1.3771
x2 = 0.3 | 1.3864 | 1.3811 | 1.37574
x2 = 0.35 | 1.38509 | 1.37975 | 1.37434
x2 = 0.4 | 1.38374 | 1.37833 | 1.3729
x2 = 0.45 | 1.38233 | 1.37687 | 1.37142
x2 = 0.5 | 1.38086 | 1.37538 | 1.36989
x2 = 0.55 | 1.37934 | 1.37379 | 1.36831
x2 = 0.6 | 1.37774 | 1.37219 | 1.36666
x2 = 0.65 | 1.37606 | 1.3705 | 1.36495
x2 = 0.7 | 1.3743 | 1.3687 | 1.36314
x2 = 0.75 | 1.37243 | 1.36683 | 1.36126
x2 = 0.8 | 1.37045 | 1.36486 | 1.35931
x2 = 0.85 | 1.36839 | 1.36279 | 1.35726
x2 = 0.9 | 1.36624 | 1.36064 | 1.3551
x2 = 0.95 | 1.36394 | 1.35838 | 1.35285

[2]
Conditions | mass density [kg/m3] | viscosity [mPa·s]
x2 = 0 | 695.95 | 0.537
x2 = 0.0499 | 697.34 | 0.519
x2 = 0.1 | 698.86 | 0.505
x2 = 0.15 | 700.68 | 0.492
x2 = 0.2 | 702.68 | 0.479
x2 = 0.25 | 705.09 | 0.468
x2 = 0.3 | 707.68 | 0.456
x2 = 0.35 | 710.55 | 0.446
x2 = 0.4 | 713.76 | 0.436
x2 = 0.45 | 717.31 | 0.426
x2 = 0.5 | – | 0.416
x2 = 0.55 | – | 0.407
x2 = 0.6 | – | 0.398
x2 = 0.65 | – | 0.389
x2 = 0.7 | – | 0.38
x2 = 0.75 | – | 0.372
x2 = 0.8 | – | 0.364
x2 = 0.85 | – | 0.356
x2 = 0.9 | – | 0.348
x2 = 0.95 | – | 0.341
